Reference: article PMC10920779, “Targeting P2Y14R protects against necroptosis of intestinal epithelial cells through PKA/CREB/RIPK1 axis in ulcerative colitis” (Nature Communications, 2024)
Several values for one entry are separate records, joined by “and”; a condition that tells them apart may be missing. Equal values may be shown once.

What was measured:
HT-29 cells = test: TSZ-induced necroptosis in HT-29 cells (CCK8 viability, PI/Hoechst, H&E staining); format: cell-based, human
Procedure: Necroptosis was induced by pretreatment with TNF‐α (20 ng·mL^−1) plus z‐VAD‐fmk (20 μM) and Smac mimetic (BV6, 2 μM) for 8 h, then stained cells with hematoxylin/eosin. For PI/Hoechst staining, cells were stained with PI and Hoechst for 20 min, then photographed with a fluorescence microscope and at least 300 cells were counted. The ratio of PI positive cells (%) = (PI positive cells) / (Hoechst positive cells) × 100%. For cell viability assay, CCK8 was added to the well and incubated for 1 − 2 h and then OD450 was measured using a multi-mode microplate reader (Cytation5, BioTek).

[1] = tested on: DSS-induced colitis in mice; test: DSS-induced acute colitis in WT mice, P2Y14R antagonist treatment (body weight, DAI, colon length, H&E, tight junction staining, TEM); format: in vivo, mouse; parameters: DAI: scale not given here; details: for Colitis symptoms: daily treatment, 3% DSS mice; for H&E staining: inflammatory infiltration and tissue damage / Tight junction protein expression (immunofluorescence) / Body weight loss and DAI vs DSS-exposed mice / Colon length vs mice treated with DSS only: high-dose, 20 μM; for Body weight loss and DAI vs DSS-exposed mice: daily
From the text: Male, 7-8-week-old, P2Y14R^fl/fl Vil-cre (P2Y14R^∆IEC), P2Y14R^fl/fl Lyz2-cre and WT mice with C57BL/6 J background were used to establish experimental (acute) colitis model. P2Y14R^fl/fl C57BL/6 J mice were used as control for P2Y14R^fl/fl Vil-cre (P2Y14R^∆IEC) and P2Y14R^fl/fl Lyz2-cre mice. WT C57BL/6 J mice were used for the pharmacological study of HDL-16. Colitis was induced by dextran sodium sulfate (DSS; 36-50 kDa; 3% w/v; MP Biomedicals, Solon, Ohio, USA), added to the drinking water ad libitum for 7 days. Control mice received standard drinking water. The Disease Activity Index (DAI) was evaluated daily as described previously. After 7 days of DSS treatment, mice were euthanized by carbon dioxide inhalation and the colons were measured and then processed for histological analyses, homogenized to extract protein or RNA.
The DSS group and the P2Y14R^△IEC + DSS group were rectally administered with 100 μl vehicle (saline with 0.1% DMSO). The low-dose group of mice was given 10 μM HDL-16, 100 μl per mouse, while the high-dose group was given 20 μM HDL-16, 100 μl per mouse.
For TEM, harvest fresh tissue blocks quickly within 1-3 minutes. […] Then tissues avoid light post fixed in 1% OsO4 in PBS for 2 h at room temperature. […] The samples were moved into a 65°C oven to polymerize for more than 48 h. Ultrathin sections were cut to 60-80 nm thin with an ultramicrotome UCT6 (Leica Microsystems, Vienna) and placed on 150 meshes cuprum grids (formvar carbon coated Cu grids) with formvar film. […] Micrographs were obtained with a Jeol JEM 1400 plus electron microscope (Jeol, USA) operating at 80 kV.
For histological assessment of colitis, colon specimens were fixed in 4% paraformaldehyde (PFA) and embedded in paraffin. Five-micrometer tissue sections were stained with H&E and examined for evidence of colitis as described previously. After the paraffin sections conventional dewaxing to water, put the sections into Hematoxylin solution for 3-5 min and treat the sections with Hematoxylin Differentiation solution. […] Finally, dehydrated the sections with gradient alcohol and xylene, and sealed with neutral gum. Images were captured with a microscope (BX53, Olympus).
Immunofluorescence staining was performed using paraffin-embedded tissues as mentioned before. For immunofluorescence, the paraffin slides were deparaffinized, rehydrated, blocked and treated according to a standard protocol. […] All slides were incubated with DAPI (S2110, Solarbio) for 10 min to show the location of the nucleus. Images were captured with a confocal microscope (LSM 800, Zeiss).

[2] = DSS-treated mice, group -H (high dose), Day 1
[3] = DSS-treated mice, group -L (low dose), Day 1
[4] = 100 μl per mouse, rectal, 3% DSS 7 days

`Brc1ccc(NCc2nc3ccccc3o2)cc1` [HDL-16] was tested, and the “Necroptosis of HT-29 cells (PI staining)” value (HT-29 cells; TSZ-treated, pre-administrated with compound) was “inhibit the necroptosis”, the DAI [1, 2] was 0 and the “Weight (%)” value [1, 2] was 95.5056% and 101.124% and 106.742%. The “Weight (%)” value ([1]; DSS-treated mice, group -H (high dose), Day 2) was 95.5056% and 101.124% and 89.8876% and 106.742%, the “Weight (%)” value ([1]; DSS-treated mice, group -H (high dose), Day 3) was 100% and 94.1176% and 94.4444% and 94.7368% and the “Weight (%)” value ([1]; DSS-treated mice, group -H (high dose), Day 4) was 94.1176% and 88.2353% and 94.4444% and 88.8889% and 94.7368%. The “Weight (%)” value ([1]; DSS-treated mice, group -H (high dose), Day 5) was 94.1176% and 88.2353% and 94.4444% and 83.3333% and 89.4737%, the “Weight (%)” value ([1]; DSS-treated mice, group -H (high dose), Day 6) was 88.2353% and 82.3529% and 88.8889% and 83.3333% and 84.2105% and the “Weight (%)” value ([1]; DSS-treated mice, group -H (high dose), Day 7) was 88.2353% and 82.3529% and 88.8889% and 77.7778% and 78.9474%. For the same compound, the DAI [1, 3] was 0, the “Weight (%)” value [1, 3] was 100.935% and 95.3271% and 106.542% and the “Weight (%)” value ([1]; DSS-treated mice, group -L (low dose), Day 2) was 100.935% and 95.3271% and 89.7196% and 106.542%. The “Weight (%)” value ([1]; DSS-treated mice, group -L (low dose), Day 3) was 94.4444% and 94.1176% and 100%, the “Weight (%)” value ([1]; DSS-treated mice, group -L (low dose), Day 4) was 100% and 94.4444% and 94.1176% and 94.7368% and the “Weight (%)” value ([1]; DSS-treated mice, group -L (low dose), Day 5) was 100% and 94.4444% and 88.2353% and 89.4737% and 88.8889% and 94.1176%. For the same compound, the “Weight (%)” value ([1]; DSS-treated mice, group -L (low dose), Day 6) was 100% and 94.4444% and 88.2353% and 89.4737%, the “Weight (%)” value ([1]; DSS-treated mice, group -L (low dose), Day 7) was 94.4444% and 88.8889% and 94.1176% and 84.2105% and 88.2353% and the Colitis symptoms [1] was “significantly suppressed colitis symptoms”. The “H&E staining: inflammatory infiltration and tissue damage” value ([1]; 100 μl per mouse) was “improved DSS-induced inflammatory infiltration and tissue damage”, the “Tight junction protein expression (immunofluorescence)” value ([1]; 100 μl per mouse) was “stabilized the expression of tight junction protein Claudin-1, Occludin and ZO-1” and the “Body weight loss and DAI vs DSS-exposed mice” value [1, 4] was “dramatically less body weight loss and lower DAI”. For the same compound, the “Colon length vs mice treated with DSS only” value [1, 4] was “significantly longer” and the “Comparison with the DSS-treated group (colitis parameters)” value ([1]; low-dose, 10 μM, 100 μl per mouse, rectal, 3% DSS 7 days) was “no significant difference”.

For `O=C(O)c1cc(-c2ccc(C3CCNCC3)cc2)c2ccc(-c3ccc(C(F)(F)F)cc3)cc2c1` [PPTN, reference compound], the “PI positive cell, PI intensity (%)” value (HT-29 cells; Figure 7k, TSZ-treated cells) was 15.53% and 10.57% and 8.89%, the DAI ([1]; DSS-treated mice, Day 1) was 0 and the “Weight (%)” value ([1]; DSS-treated mice, Day 1) was 101.124% and 106.742% and 95.5056%. For the same compound, the “Weight (%)” value ([1]; DSS-treated mice, Day 2) was 101.124% and 106.742% and 95.5056%, the “Weight (%)” value ([1]; DSS-treated mice, Day 3) was 95.5056% and 106.742% and the “Weight (%)” value ([1]; DSS-treated mice, Day 4) was 89.8876% and 101.124% and 95.5056%. For the same compound, the “Weight (%)” value ([1]; DSS-treated mice, Day 5) was 89.8876% and 101.124% and 84.2697% and 95.5056%, the “Weight (%)” value ([1]; DSS-treated mice, Day 6) was 84.2697% and 95.5056% and 89.8876% and the “Weight (%)” value ([1]; DSS-treated mice, Day 7) was 89.8876% and 95.5056% and 84.2697%. The “Colon length (cm)” value ([1]; DSS-treated mice, Figure 7c) was 6.3 cm and 7.4 cm and 5.5 cm and 5.9 cm and 6.7 cm and 7.1 cm, the Colitis symptoms [1] was “significantly suppressed colitis symptoms” and the “H&E staining: inflammatory infiltration and tissue damage” value ([1]; 100 μl per mouse) was “improved DSS-induced inflammatory infiltration and tissue damage”. The “Tight junction protein expression (immunofluorescence)” value ([1]; 100 μl per mouse) was “stabilized the expression of tight junction protein Claudin-1, Occludin and ZO-1”, the “Body weight loss and DAI vs DSS-exposed mice” value [1, 4] was “dramatically less body weight loss and lower DAI” and the “Colon length vs mice treated with DSS only” value [1, 4] was “significantly longer”.
